Laboratory results reported in article PMC9578396, “Intrinsic Antibacterial Activity of Xeruborbactam In Vitro: Assessing Spectrum and Mode of Action” (Antimicrobial Agents and Chemotherapy, 2022).
≈ marks a conversion by molar mass, not a printed value. Where two headings read alike, the source gives them in different places.

What was measured:
Format in all cases: cell-based
Enterobacterales = assay: Broth microdilution MIC (CLSI), Enterobacterales; conditions: read-out: antibacterial potency (MIC)
From the text: (§1) Bacterial isolates were subjected to broth microdilution susceptibility testing, performed according to Clinical and Laboratory Standards Institute (CLSI) methods ([46]), using panels prepared in-house. Meropenem was purchased from Sandoz, and all other antibiotics were from Sigma-Aldrich. Xeruborbactam was synthesized at Qpex Biopharma, San Diego, CA. Avibactam was purchased from eNovation Chemicals LLC, Bridgewater, NJ, USA; zidebactam was from MedKoo Biosciences, Inc., Morrisville, NC, and nacubactam was from Advanced ChemBlocks, Hayward, CA. Durlobactam was synthesized at Acme Bioscience, Palo Alto, CA, USA.

Acinetobacter baumannii = assay: Broth microdilution MIC (CLSI), Acinetobacter baumannii; conditions: Acinetobacter baumannii
From the text: (§2) (i) Panels of engineered bacterial strains containing various combinations of porin and efflux mutations were used. The construction of all the strains used in the study is described in detail in references, [44], and [45]. (ii) KPC-producing clinical isolates and their derivatives that lost KPC plasmids were used also. These strains and their origins are described in the Table S2. (iii) Finally, KPC-producing clinical isolates enriched in strains with porin mutations were used. The mutations identified include various deletions, insertions, nonsense mutations, and decreased expression. Most of the isolates were obtained from JMI Laboratories or International Health Management Associates (IHMA); they were collected in the course of global surveillance studies.
as §1, with “Meropenem was purchased from Sandoz, and all other antibiotics were from Sigma-Aldrich.” left out

Klebsiella pneumoniae = assay: microbe, parasite or virus in culture; conditions: Klebsiella pneumoniae
From the text: as §2
as §1, with “Meropenem was purchased from Sandoz, and all other antibiotics were from Sigma-Aldrich.” left out

Pseudomonas aeruginosa = assay: Broth microdilution MIC (CLSI), Pseudomonas aeruginosa; conditions: Pseudomonas aeruginosa
From the text: as §2
as §1, with “Meropenem was purchased from Sandoz, and all other antibiotics were from Sigma-Aldrich.” left out

Escherichia coli = assay: Broth microdilution MIC (CLSI), Escherichia coli
From the text: as §2
as §1, with “Meropenem was purchased from Sandoz, and all other antibiotics were from Sigma-Aldrich.” left out

[1] = strain AB1007, wild type, read-out: MIC
[2] = strain ACM1015, ΔadeIJK ΔadeABC
[3] = strain ACM1027, adeN (AdeIJK overexpression)
[4] = strain ACM1030, adeS (AdeABC overexpression)
[5] = KPM1026a, parent, read-out: MIC
[6] = strain KPM1026a, wild type, read-out: MIC
[7] = strain KPM1027, ramR, read-out: MIC
[8] = strain KPM1171, ramR ompK36_1171, read-out: MIC
[9] = strain KPM2040, ompK36_2040, read-out: MIC
[10] = strain KPM2613, ΔompK35 ompK36_2040
[11] = strain PAM1020, wild type, read-out: MIC
[12] = strain PAM1032, nalB (MexAB-OprM overexpression)
[13] = strain PAM1033, nfxB (MexCD-OprJ overexpression)
[14] = strain PAM1034, nfxC (MexEF-OprN overexpression)
[15] = EC1078, PBP2 same as MG1655, PBP3 I332V
[16] = EC1081, PBP2 same as MG1655, PBP3 Q227H
[17] = EC1085, PBP2 T331P, PBP3 A233T I332V
[18] = EC1088, PBP2 A308G, PBP3 same as MG1655
[19] = EC1098, PBP2 V217M, PBP3 YRIN ins, I532L
[20] = EC1103, PBP2 same as MG1655, PBP3 YRIN ins, Q227H, E349K, I532L
[21] = EC1105, PBP2 A543T, PBP3 YRIN ins, Q227H, E349K, I532L
[22] = EC1119, PBP2 same as MG1655, PBP3 YRIN ins, Q227H, E349K, I532L
[23] = EC1121, PBP2 V217M, PBP3 YRIN ins, E349K, I532L
[24] = Escherichia coli, strain ECM5497, wild type, read-out: MIC
[25] = Escherichia coli, strain ECM6001, ΔacrB
[26] = Escherichia coli, strain ECM6502, marR (AcrAB overexpression)

In the case of `CC1=C[C@@H]2CN(C(=O)N2OS(=O)(=O)O)[C@@H]1C(N)=O` [Durlobactam], the MIC (Enterobacterales) is reported as 0.125 to 0.5 µg/mL (≈ 0.451 to 1.8 µM), the MIC (Acinetobacter baumannii; [1]) is reported as 64 µg/mL and the MIC (Acinetobacter baumannii; strain ACM1013, ΔadeIJK) is reported as 32 µg/mL. For the same compound, the MIC (Acinetobacter baumannii; strain ACM1014, ΔadeABC) was 64 µg/mL, the MIC (Acinetobacter baumannii; [2]) was 16 µg/mL and the MIC (Acinetobacter baumannii; [3]) was 128 µg/mL. For the same compound, the MIC (Acinetobacter baumannii; [4]) was 64 µg/mL, the MIC (Klebsiella pneumoniae; KPM1026a, alone, read-out: MIC) was 0.25 µg/mL and the MIC (Klebsiella pneumoniae; [5]) was 0.25 µg/mL. For the same compound, the MIC (Klebsiella pneumoniae; KPM3532 (TolQ::M189K), alone) was 8 µg/mL, the MIC (Klebsiella pneumoniae; KPM3532, TolQ::M189K) was 8 µg/mL and the MIC (Klebsiella pneumoniae; KPM3534 (TolQ::S31F), alone) was 16 µg/mL. It also gave an MIC (Klebsiella pneumoniae; KPM3534, TolQ::S31F) of 16 µg/mL, an MIC (Klebsiella pneumoniae; KPM4235, TolQ::IP(183–1844)PR) of 16 µg/mL and an MIC (Klebsiella pneumoniae; KPM4236, TolQ::TAA at aa 103) of 16 µg/mL. For the same compound, the MIC (Klebsiella pneumoniae; KPM4238, TolQ::S25F) was 16 µg/mL, the MIC (Klebsiella pneumoniae; KPM4239, TolQ::S28F) was 16 µg/mL and the MIC (Klebsiella pneumoniae; KPM4240, TolQ::S25Y) was 16 µg/mL. For the same compound, the MIC (Klebsiella pneumoniae; [6]) was 0.5 µg/mL, the MIC (Klebsiella pneumoniae; [7]) was 0.5 µg/mL and the MIC (Klebsiella pneumoniae; [8]) was 32 µg/mL. It also gave an MIC (Klebsiella pneumoniae; [9]) of 4 µg/mL, an MIC (Klebsiella pneumoniae; strain KPM2600, ΔompK35) of 0.5 µg/mL and an MIC (Klebsiella pneumoniae; [10]) of 8 µg/mL. The MIC (Klebsiella pneumoniae; strain KPM2696, ΔacrB) was 0.25 µg/mL, the MIC (Pseudomonas aeruginosa; after inactivation of MexAB-OprM, read-out: MIC) was 8 µg/mL and the MIC (Pseudomonas aeruginosa; before inactivation of MexAB-OprM (wild type), read-out: MIC) was 64 µg/mL. The MIC (Pseudomonas aeruginosa; [11]) was 64 µg/mL, the MIC (Pseudomonas aeruginosa; [12]) was > 256 µg/mL and the MIC (Pseudomonas aeruginosa; [13]) was 4 µg/mL. It also gave an MIC (Pseudomonas aeruginosa; [14]) of 128 µg/mL, an MIC (Pseudomonas aeruginosa; strain PAM1106, mexA::Tet) of 8 µg/mL and an MIC (Pseudomonas aeruginosa; strain PAM1154, oprM::Hg) of 8 µg/mL. It also gave an MIC (Escherichia coli; [15]) of 8, an MIC (Escherichia coli; [16]) of 0.25 and an MIC (Escherichia coli; [17]) of 32. It also gave an MIC (Escherichia coli; [18]) of 0.5, an MIC (Escherichia coli; EC1097, PBP2 M574I, PBP3 Q227H) of 1 and an MIC (Escherichia coli; [19]) of 0.5. For the same compound, the MIC (Escherichia coli; [20]) was 0.25, the MIC (Escherichia coli; [21]) was 1 and the MIC (Escherichia coli; [22]) was 8. For the same compound, the MIC (Escherichia coli; [23]) was 0.5, the MIC (Escherichia coli; [24]) was 0.5 µg/mL and the MIC (Escherichia coli; [25]) was 0.5 µg/mL. For the same compound, the MIC (Escherichia coli; [26]) was 0.25 µg/mL.
`O=C(NNC(=O)[C@@H]1CC[C@@H]2CN1C(=O)N2OS(=O)(=O)O)[C@@H]1CCCNC1` [Zidebactam] was tested, and the MIC (Enterobacterales) was 0.125 to 0.5 µg/mL (≈ 0.319 to 1.28 µM), the MIC (Acinetobacter baumannii; [1]) was > 256 µg/mL and the MIC (Acinetobacter baumannii; strain ACM1013, ΔadeIJK) was > 256 µg/mL. For the same compound, the MIC (Acinetobacter baumannii; strain ACM1014, ΔadeABC) was > 256 µg/mL, the MIC (Acinetobacter baumannii; [2]) was > 256 µg/mL and the MIC (Acinetobacter baumannii; [3]) was > 256 µg/mL. The MIC (Acinetobacter baumannii; [4]) was > 256 µg/mL, the MIC (Klebsiella pneumoniae; KPM1026a, alone, read-out: MIC) was 0.25 µg/mL and the MIC (Klebsiella pneumoniae; [5]) was 0.25 µg/mL. The MIC (Klebsiella pneumoniae; KPM3532 (TolQ::M189K), alone) was > 64 µg/mL, the MIC (Klebsiella pneumoniae; KPM3532, TolQ::M189K) was > 64 µg/mL and the MIC (Klebsiella pneumoniae; KPM3534 (TolQ::S31F), alone) was > 64 µg/mL. The MIC (Klebsiella pneumoniae; KPM3534, TolQ::S31F) was > 64 µg/mL, the MIC (Klebsiella pneumoniae; KPM4235, TolQ::IP(183–1844)PR) was > 64 µg/mL and the MIC (Klebsiella pneumoniae; KPM4236, TolQ::TAA at aa 103) was > 64 µg/mL. The MIC (Klebsiella pneumoniae; KPM4238, TolQ::S25F) was > 64 µg/mL, the MIC (Klebsiella pneumoniae; KPM4239, TolQ::S28F) was > 64 µg/mL and the MIC (Klebsiella pneumoniae; KPM4240, TolQ::S25Y) was > 64 µg/mL. The MIC (Klebsiella pneumoniae; [6]) was 0.25 µg/mL, the MIC (Klebsiella pneumoniae; [7]) was 0.25 µg/mL and the MIC (Klebsiella pneumoniae; [8]) was > 64 µg/mL. The MIC (Klebsiella pneumoniae; [9]) was > 64 µg/mL, the MIC (Klebsiella pneumoniae; strain KPM2600, ΔompK35) was 0.25 µg/mL and the MIC (Klebsiella pneumoniae; [10]) was > 64 µg/mL. It also gave an MIC (Klebsiella pneumoniae; strain KPM2696, ΔacrB) of 0.25 µg/mL, an MIC (Pseudomonas aeruginosa; [11]) of 2 µg/mL and an MIC (Pseudomonas aeruginosa; [12]) of 4 µg/mL. The MIC (Pseudomonas aeruginosa; [13]) was 0.125 µg/mL, the MIC (Pseudomonas aeruginosa; [14]) was 2 µg/mL and the MIC (Pseudomonas aeruginosa; strain PAM1106, mexA::Tet) was 2 µg/mL. For the same compound, the MIC (Pseudomonas aeruginosa; strain PAM1154, oprM::Hg) was 2 µg/mL, the MIC (Escherichia coli; [15]) was 8 and the MIC (Escherichia coli; [16]) was 0.125. It also gave an MIC (Escherichia coli; [17]) of 16, an MIC (Escherichia coli; [18]) of 0.25 and an MIC (Escherichia coli; EC1097, PBP2 M574I, PBP3 Q227H) of 0.25. It also gave an MIC (Escherichia coli; [19]) of 0.25, an MIC (Escherichia coli; [20]) of 0.25 and an MIC (Escherichia coli; [21]) of 0.5. The MIC (Escherichia coli; [22]) was 8, the MIC (Escherichia coli; [23]) was 0.5 and the MIC (Escherichia coli; [24]) was 0.125 µg/mL. For the same compound, the MIC (Escherichia coli; [25]) was 0.125 µg/mL, the MIC (Escherichia coli; [26]) was 0.5 µg/mL and the “fold effect on MIC” value (Escherichia coli; overexpression of AcrAB in E. coli) was 4 fold.
